Measurements reported in ChEMBL document CHEMBL4477206, “Benzylpiperidine-Linked Diarylthiazoles as Potential Anti-Alzheimer's Agents: Synthesis and Biological Evaluation” (J Med Chem, 2016).
Active and inactive are the calls of the source. The rule behind the calls is not given here.

Legend:
Cholinesterase = Cholinesterase (Equus caballus, UniProt P81908); experiment: Inhibition of equine serum BuChE using BTCI as substrate preincubated for 30 mins followed by substrate addition measured after 30 mins by Ellman assay
Acetylcholinesterase [1] = molecular target: T1, Acetylcholinesterase (Homo sapiens, UniProt P22303); experiment: Mixed inhibition of human erythrocyte AChE at 0.05 to 0.4 uM using ATCI as substrate preincubated for 30 mins followed by substrate addition measured after 30 mins by Lineweaver-Burk plot analysis
[2] = Toxicity in Swiss albino mouse assessed as mortality at 677 to 2000 mg/kg, po for 14 days; assay type: organism-based; settings: in vivo, 336 h
[3] = Toxicity in Swiss albino mouse assessed as changes in fur sleekness at 677 to 2000 mg/kg, po for 14 days; assay type: organism-based; settings: in vivo, 336 h
[4] = Toxicity in Swiss albino mouse assessed as change in water and food consumption at 677 to 2000 mg/kg, po for 14 days; assay type: organism-based; settings: in vivo, 336 h
[5] = Toxicity in Swiss albino mouse assessed as change in body weight at 677 to 2000 mg/kg, po for 14 days; assay type: organism-based; settings: in vivo, 336 h
[6] = Toxicity in Swiss albino mouse assessed as heart damage at 677 to 2000 mg/kg, po treated for 14 days measured on 15th day post treatment; assay type: organism-based; settings: in vivo, 336 h
[7] = Toxicity in Swiss albino mouse assessed as kidney damage at 677 to 2000 mg/kg, po treated for 14 days measured on 15th day post treatment; assay type: organism-based; settings: in vivo, 336 h
[8] = Toxicity in Swiss albino mouse assessed as liver damage at 677 to 2000 mg/kg, po treated for 14 days measured on 15th day post treatment; assay type: organism-based; settings: in vivo, 336 h
[9] = Cmax in Wistar rat at 5 mg/kg, po administered as a single dose by HPLC analysis; assay type: ADME, organism-based; set-up: dose 5 mg/kg, route oral; settings: in vivo
[10] = Tmax in Wistar rat at 5 mg/kg, po administered as a single dose by HPLC analysis; assay type: ADME, organism-based; settings: in vivo
[11] = AUC(0 to 8 hrs) in Wistar rat at 5 mg/kg, po administered as a single dose by HPLC analysis; assay type: ADME, organism-based; set-up: time < 6 hr, dose 5 mg/kg, route oral; settings: in vivo
[12] = Terminal half life in Wistar rat at 5 mg/kg, po administered as a single dose by HPLC analysis; assay type: ADME, organism-based; settings: in vivo, read-out: beta t1/2 (converted)
Mus musculus [13] = experiment: (§1) Neuroprotective activity in Swiss albino mouse assessed as inhibition of scopolamine-induced elevation in MDA level in brain at 5 mg/kg, po administered 30 mins prior to scopolamine challenge administered for 9 days measured after 20 mins of compound incubation by TBARS assay relative to vehicle-treated control; assay type: functional, organism-based
Mus musculus [14] = experiment: as §1, with “elevation” for “inhibition”, “decrease” for “elevation”, “catalase” for “MDA”, “1 min” for “20 mins”, “spectrophotometrical analysis” for “TBARS assay”; assay type: functional, organism-based
Rattus norvegicus = experiment: Neuroprotective activity in Wistar rat brain hippocampus assessed as increase in Abeta (1 to 42) insult-induced decrease in spontaneous alterations at 5 mg/kg, po administered for 15 days measured for last 5 days of treatment by Y Maze assay; assay type: functional, organism-based
[15] = Permeability of the compound at 100 ug/ml incubated for 120 mins by PAMPA; assay type: ADME; settings: read-out: Peff
Acetylcholinesterase [16] = molecular target: T1, Acetylcholinesterase; settings: at 10 µM
Description: Inhibition of human erythrocyte AChE-induced Abeta (1 to 42) aggregation at 10 uM incubated for 24 hrs by thioflavin-T fluorescence assay

in vitro [17] = settings: human, SH-SY5Y cells
Description: Cytotoxicity against human SH-SY5Y cells assessed as cell viability at 40 uM after 24 hrs by MTT assay

in vitro [18] = settings: human, SH-SY5Y cells; remark: listed apart in the source
Description: Cytotoxicity against human SH-SY5Y cells assessed as cell viability at 80 uM after 24 hrs by MTT assay

T1 sequence (P22303 whole entry): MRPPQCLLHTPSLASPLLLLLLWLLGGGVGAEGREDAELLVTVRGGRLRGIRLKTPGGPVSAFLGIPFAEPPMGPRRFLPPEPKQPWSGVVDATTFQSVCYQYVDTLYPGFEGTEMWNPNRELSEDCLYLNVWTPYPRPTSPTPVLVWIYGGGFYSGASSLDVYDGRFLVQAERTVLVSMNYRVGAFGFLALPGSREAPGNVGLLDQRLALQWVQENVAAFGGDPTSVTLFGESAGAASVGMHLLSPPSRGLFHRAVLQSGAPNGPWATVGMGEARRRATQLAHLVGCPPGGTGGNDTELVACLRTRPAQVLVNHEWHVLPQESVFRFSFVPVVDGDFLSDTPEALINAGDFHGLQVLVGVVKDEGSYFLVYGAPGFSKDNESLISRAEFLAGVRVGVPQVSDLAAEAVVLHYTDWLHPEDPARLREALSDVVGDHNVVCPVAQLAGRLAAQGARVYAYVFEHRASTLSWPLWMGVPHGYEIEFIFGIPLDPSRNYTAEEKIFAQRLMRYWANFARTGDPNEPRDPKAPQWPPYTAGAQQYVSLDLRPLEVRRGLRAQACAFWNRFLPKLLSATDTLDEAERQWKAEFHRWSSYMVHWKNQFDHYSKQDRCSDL
Sequence of Cholinesterase (P81908 whole entry): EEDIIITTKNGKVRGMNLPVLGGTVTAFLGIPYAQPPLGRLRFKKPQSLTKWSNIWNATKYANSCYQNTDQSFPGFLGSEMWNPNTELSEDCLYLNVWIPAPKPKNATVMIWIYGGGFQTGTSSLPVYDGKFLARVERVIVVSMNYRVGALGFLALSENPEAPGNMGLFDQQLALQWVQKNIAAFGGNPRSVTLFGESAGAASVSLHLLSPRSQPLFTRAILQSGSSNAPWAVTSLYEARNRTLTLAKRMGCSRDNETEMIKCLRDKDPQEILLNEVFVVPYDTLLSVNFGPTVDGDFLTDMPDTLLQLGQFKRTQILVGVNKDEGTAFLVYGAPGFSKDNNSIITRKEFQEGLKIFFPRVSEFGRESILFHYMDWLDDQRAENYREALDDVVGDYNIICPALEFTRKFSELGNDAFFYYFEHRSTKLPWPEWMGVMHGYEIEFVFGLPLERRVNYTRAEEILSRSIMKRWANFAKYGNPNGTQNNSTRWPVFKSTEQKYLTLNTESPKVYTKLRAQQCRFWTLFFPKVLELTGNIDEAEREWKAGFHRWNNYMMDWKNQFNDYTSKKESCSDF

## Cc1ccc(-c2nc(NCC3CCN(Cc4cc(F)cc(F)c4)CC3)sc2-c2ccc(C)cc2)cc1
Cholinesterase
  IC50: 1840 nM
Acetylcholinesterase [1]
  inhibition: Active
[2]
  Activity: Non-Toxic
[3]
  Activity: Non-Toxic
[4]
  Activity: Non-Toxic
[5]
  Activity: Non-Toxic
[6]
  Activity: Non-Toxic
[7]
  Activity: Non-Toxic
[8]
  Activity: Non-Toxic
[9]
  Cmax: 21.2 ng/mL
[10]
  Tmax: 3.66 h
[11]
  AUC(0-t) at 6 h: 587 ng·h/mL
[12]
  half-life: 19.4 h
Mus musculus [13]
  Activity: Active
Mus musculus [14]
  Activity: Active
Rattus norvegicus
  Activity: Active
[15]
  Papp at 2 h, 100 ug/ml: 14.5 ×10⁻⁶ cm/s
Acetylcholinesterase [16]
  inhibition: 27.6%
In vitro [17]
  viability at 24 h, 40 µM: 95.2%
In vitro [18]
  viability at 24 h, 80 µM: 91.3%
